Target: T1, AML (Amycolatopsis mediterranei lipase) (Amycolatopsis mediterranei, UniProt A0A0H3DES9)
T1 construct: gene AMED_7492; recombinant, pET-49b(+), E. coli BL21(DE3) cytosol; glutathione agarose, tag cut off with PreScission protease
Assay: p-nitrophenyl ester hydrolysis assay, relative activity
Format: biochemical
Settings: 50 mM Tris pH 7.5, 37 °C, 10 min, 20 mM substrate

T1 sequence (A0A0H3DES9 entry or part of it): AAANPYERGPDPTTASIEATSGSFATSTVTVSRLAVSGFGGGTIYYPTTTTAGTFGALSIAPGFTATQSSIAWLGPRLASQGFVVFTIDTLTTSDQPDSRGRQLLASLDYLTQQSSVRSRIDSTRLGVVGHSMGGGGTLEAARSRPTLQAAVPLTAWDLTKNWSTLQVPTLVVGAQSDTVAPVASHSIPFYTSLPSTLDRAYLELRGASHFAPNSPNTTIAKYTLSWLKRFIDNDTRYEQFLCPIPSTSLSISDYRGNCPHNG

SMILES: CCCCCCCC(=O)Oc1ccc([N+](=O)[O-])cc1 [p-nitrophenyl octanoate]
- relative activity (%) (reference substrate for relative activity): relative activity (%) was calculated using p-nitrophenyl octanoate (C-8) as the reference, highest activity, substrate

SMILES: CC(=O)Oc1ccc([N+](=O)[O-])cc1 [p-nitrophenyl acetate]
- relative activity (%): experimentally low activity of AML observed towards p-nitrophenyl acetate
